From PMC8335727 (Inorganic Chemistry, 2021)
Several values for one entry are separate records, joined by “and”; a condition that tells them apart may be missing. Identical values can stand only once. Like-named read-outs stand apart in the source and are kept apart here.

Tests used:
[1] = tested on: Colo320 cells; test: Annexin-V-FITC/PI apoptosis induction assay (flow cytometry); type: cell-based, human; settings: for Cell death % Q1 / Early apoptosis % Q3 / Late apoptosis and necrosis % Q2: 3 h induction
Method: To gain further insights into the cytotoxic behavior of the compounds, apoptosis induction by lead compounds HL^1 and [Cu(L^2)Cl] was investigated by a flow cytometry analysis of multidrug-resistant Colo320 cells stained with Annexin-V-FITC and propidium iodide (PI).
Colo320 cells were treated at the indicated concentration of the drugs. The dual parametric dot plots that combine the Annexin-V (FL1) and PI (FL3) fluorescence show the viable cell population in the lower-left quadrant Annexin-V–/PI– (Q4), the early apoptotic cells in the lower-right quadrant Annexin-V+/PI– (Q3), and the late apoptotic and necrotic cells in the upper-right quadrant Annexin-V+/PI+ (Q2). […]
2.5.3. Mechanisms of cell death: assay for apoptosis induction
The assay was carried out for selected compounds using an Annexin V-FITC Apoptosis Detection
Kit (Cat. No. APOAF-50TST) from Sigma according to the manufacturer's instructions. The
concentration of the Colo320 cell suspension was adjusted to approximately 0.5 × 10^6 cells per
mL in RPMI medium and the cell suspension was distributed in 1 mL aliquots into a 24-well plate,
and then incubated overnight at 37 °C and 5% CO2. On the following day, the medium was
removed and replaced by 1 mL RPMI medium containing the compounds except the control
samples. Colo320 cells were incubated in the presence of the compounds at 4 and 8 μM (HL1), or
0.25 and 0.50 μM (Cu(HL2)Cl2) in the 24-well plate at 37 °C for 3 h, and 12H-
controls. After the incubation period the samples were washed with PBS and fresh RPMI medium
was added to the samples. The cells were incubated overnight at 37 °C and 5% CO2. The next day,
200 μL 0.25% Trypsin (Trypsin-Versen) was added to the samples until cells appeared detached
followed by the addition of 400 μL of RPMI medium supplemented with 10% bovine serum. The
cells were collected in Eppendorf tubes and centrifuged at 2000 g for 2 min. The harvested cells
were resuspended in fresh serum free RPMI medium culture medium. After this step, the apoptosis
assay was carried out according to the instructions of the manufacturer. The fluorescence was
analyzed immediately using a ParTec CyFlow flow cytometer (Partec GmbH, Münster, Germany). […]

[2] = pKa by UV–vis titrations in 30% (v/v) DMSO/H2O; type: physicochemical; settings: 30% (v/v) DMSO/H2O solvent mixture, I = 0.1 M (KCl), T = 25 °C
Text: Proton dissociation constants (pKa) of drug molecules indicate the actual protonation state and the charge at a given pH, and therefore pKa are important parameters that affect the pharmacokinetic properties as well.
On the basis of the spectral changes two well-separated deprotonation processes were observed between pH 2 and 11. The first proton dissociation step taking place at pH < 5 is accompanied by a blue shift, and the λmax is shifted from 362 to 322 nm. This deprotonation step is attributed to the proton on the pyridinium nitrogen (PyH^+). Upon an increase of the pH a new process occurred as evidenced by a new band in the range of 350–450 nm (Figure 7b) and an isosbestic point at 350 nm, namely, the deprotonation of the hydrazinic nitrogen. In the strongly basic pH range (pH > 11.2) new broad bands appear at 400–600 nm (Figure 7b) with irreversible spectral changes most likely due to an oxidation of the TSC by the air oxygen.
Therefore, only two pKa values could be determined (Table 1) based on the deconvolution of the UV–vis spectra recorded at pH < 11.2 for HL^1 (molar absorbance spectra are seen in Figure S8a) as the oxidation hindered the accurate determination of the pKa for the aromatic OH group. Two pKa values were computed for HL^2 from the UV–vis titration data (Figure S9) as well; however, only one pKa was obtained in the case of HL^3 (Table 1), namely, that for the deprotonation of the PyH^+, since the proton dissociation of the hydrazinic nitrogen and the oxidation of the TSC were partly overlapped. On the basis of the determined pKa values, it can be concluded that the presence of the electron-donating methyl group in HL^2 results in a significant increase of both pKa values when compared to that of HL^1. A similar behavior was reported for the analogous 2-formylpyridine and 2-acetylpyridine TSC in our previous work.[67] […] All proligands are air-sensitive in the strongly basic pH range (pH > 11).
The metal complexes often undergo transformation processes upon dissolution, such as protonation, deprotonation, or dissociation to a metal-free ligand and metal ion depending on the pH, their concentration, and the solution speciation. The knowledge of the actual chemical form of the biologically active metal complexes in solution close to physiologically relevant conditions is quite important to elucidate the mechanism of action. Therefore, the solution stability of the copper(II) complexes (Cu(HL^1)Cl2, [Cu(L^2)Cl], and Cu(HL^3)Cl2) was studied by UV–vis spectrophotometry. […] At lower pH this type of complex is protonated, and thus the neutral ligand is bound via (Npyridine,N,S) donor atoms, while a mixed hydroxido complex with the (Npyridine,N,S^–)(OH) coordination pattern is formed in the basic pH range. On the basis of the close structural similarities between HL^1–HL^3 and the listed TSCs with a simpler scaffold, the formation of the same type of complexes is feasible. UV–vis titrations were performed with the complexes in a 30% (v/v) DMSO/H2O solvent mixture, and representative spectra are shown for Cu(HL^1)Cl2 in Figure 8. The spectra remain intact in a broad pH range (2.7–7.6), and an absorption band is observed with λmax at 406 nm being typical for a S → Cu charge transfer. This finding indicates the dominant presence of only one kind of complex, which is most probably the species with the (Npyridine,N,S^–) tridentate coordination mode. By decreasing the pH the λmax is hypsochromically shifted to 322 nm. […]

[3] = tested on: SW480 cells; test: Cell cycle distribution by flow cytometry; type: cell-based, human; settings: 24 h
Text: […] TEXT PRINTED IN THE PICTURE: (A) no label printed: S: 27.7% | (B) no label printed: S: 33.8% | (C) no label printed: S: 44.0% | (D) no label printed: S: 46.5% DOUBTS OF THE COPYIST ABOUT THIS PICTURE: No substance labels are printed in the picture, only the panel letters A-D. / The phase label "S" is printed only in panel A. Applying it to the percentages in panels B, C and D is assumed from where the marker line sits.

SMILES | Cell death % Q1 ([1]; 4 µM) | Early apoptosis % Q3 ([1]; 4 µM) | Late apoptosis and necrosis % Q2 ([1]; 4 µM) | Cell death % Q1 ([1]; 8 µM) | Early apoptosis % Q3 ([1]; 8 µM) | Late apoptosis and necrosis % Q2 ([1]; 8 µM) | viability at 4 µM ([1]; Homo sapiens, COLO 320, 4 μM, read-out: viable cell population Q4) | pKa ([2]; read-out: pKa (NNH)) | pKa ([2]; read-out: pKa (PyH^+)) | G1 phase cells ([3]; 1 µM) | G2 phase cells ([3]; 1 µM) | S phase cells ([3]; 1 µM) | G0/G1 phase cells ([3]; 10 µM) | G2/M phase cells ([3]; 10 µM) | S phase cells ([3]; 10 µM)
Cc1cc(NC(=S)NN=Cc2ccccn2)cc(C)c1O [HL^1, 2-Formylpyridine 4-(4-hydroxy-3,5-dimethylphenyl)thiosemicarbazone] | 2.79% | 6.19% | 12.4% | 1.57% | 7.65% | 7.0% | 78.6% | 10.55 ± 0.01 | 3.01 ± 0.01 | 48.5% | 19.4% | 32.0% | 49.2% and 49.2 ± 1.6% | 12.3% and 12.3 ± 4.4% | 37.1 ± 4.7%
CC(=NNC(=S)Nc1cc(C)c(O)c(C)c1)c1ccccn1 [HL^2, 2-Acetylpyridine 4-(4-hydroxy-3,5-dimethylphenyl)thiosemicarbazone] |  |  |  |  |  |  |  | 11.08 ± 0.02 | 3.59 ± 0.02 |  |  |  |  |  | 
Cc1cc(NC(=S)NN=Cc2ncccc2N)cc(C)c1O [HL^3, 3-Amino-2-formylpyridine 4-(4-hydroxy-3,5-dimethylphenyl)thiosemicarbazone] |  |  |  |  |  |  |  |  | 3.95 ± 0.04 |  |  |  |  |  | 
